One assay deals with MCF-7 cells. The experiment in a line: MCF7 Viability Assay (Breast Cancer Cell Viability Assay). Format: cell-based. The conditions noted are these: 5 days' compound exposure, CellTiter-Glo; for pIC50: Homo sapiens, MCF7, 120 h. The essentials: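 Cells (320 per well, RPMI with 10% FBS and 20 mM HEPES) adhered overnight, then were exposed 5 days to an eleven-point semilog compound series, 0.3-0.000003 μM final. Viability read by CellTiter-Glo luminescence, background-subtracted, expressed as % of untreated cells.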
(In general: ATP-based viability assays read luminescence as a measure of living cells.)

Another assay addresses T1, ER-α (Homo sapiens, UniProt P03372).
T1 construct: endogenous in cells; host or cells: MCF-7
T1 sequence (P03372 1-595): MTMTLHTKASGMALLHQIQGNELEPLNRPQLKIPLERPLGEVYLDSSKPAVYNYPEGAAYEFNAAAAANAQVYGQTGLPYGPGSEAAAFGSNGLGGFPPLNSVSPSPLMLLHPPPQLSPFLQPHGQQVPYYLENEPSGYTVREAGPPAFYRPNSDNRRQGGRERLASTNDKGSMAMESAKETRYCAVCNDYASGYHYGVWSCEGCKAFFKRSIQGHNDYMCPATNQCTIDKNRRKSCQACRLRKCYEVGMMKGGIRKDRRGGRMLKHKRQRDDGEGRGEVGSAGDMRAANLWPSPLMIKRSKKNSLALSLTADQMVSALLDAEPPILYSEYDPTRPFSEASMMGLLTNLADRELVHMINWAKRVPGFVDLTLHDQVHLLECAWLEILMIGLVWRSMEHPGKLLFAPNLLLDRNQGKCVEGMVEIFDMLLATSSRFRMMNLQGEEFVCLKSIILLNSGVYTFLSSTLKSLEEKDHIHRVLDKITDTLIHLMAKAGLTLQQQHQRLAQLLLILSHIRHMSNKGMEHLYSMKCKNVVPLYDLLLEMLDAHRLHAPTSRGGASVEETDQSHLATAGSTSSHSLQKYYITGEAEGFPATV
Briefly: Breast Cancer Cell ER-α In Cell Western Assay (SP1). Type of assay: cell-based. The following applies: MCF-7 cells, 4 or 24 hr post compound addition, SP1 antibody; for Emax: MCF7, read-out: ER-α In Cell Western Assay (SP1) Max Response; for DC50: read-out: ER-α In Cell Western Assay (SP1) IC50. The essentials:
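MCF-7 cells in RPMI with 10% charcoal-stripped FBS received an eleven-point semilog series, 0.3-0.000003 μM final, for 4 or 24 hr. After fixation, ER-α stained with SP1 antibody and IRDye 800 CW, DNA with DRAQ5; % ER = 800/700 nm intensity ratio relative to untreated cells.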

pIC50: −log10 of the molar value.

The pIC50 is the negative decadic logarithm of the IC50, by convention in mol/L. A lower pIC50 goes with a high IC50. As to `O=C(O)/C=C/c1ccc(/C(=C(\c2ccccc2)C2CCC2)c2ccc(N3CCNCC3)cc2)cc1` [Example 65, (E)-3-(4-((E)-2-Cyclobutyl-2-phenyl-1-(4-(piperazin-1-yl)phenyl)vinyl)phenyl)acrylic acid], in the assay on MCF-7 cells, the “MCF7 Viability Assay Max Response” value is given as “++ (++ = a single % value ≧ 40%)” and the pIC50 was at least 7.00. At ER-α, the Emax is at least 40% and the DC50 is at most 100 nM.
For the compound `O=C(O)/C=C/c1ccc(/C(=C(\c2ccccc2)C2CCC2)c2ccc(-c3ccncc3)cc2)cc1` [Example 66, (E)-3-(4-((E)-2-Cyclobutyl-2-phenyl-1-(4-(pyridin-4-yl)phenyl)vinyl)phenyl)acrylic acid], in the assay with MCF-7 cells, the “MCF7 Viability Assay Max Response” value is “++ (++ = a single % value ≧ 40%)” and the pIC50 is at least 7.00. On ER-α, the Emax is at least 40% and the DC50 was at most 100 nM.
The matching figures for `O=C(O)/C=C/c1ccc(/C(=C(\c2ccccc2)C2CCC2)c2ccc(-c3cnn(CCO)c3)cc2)cc1` [Example 67, (E)-3-(4-((E)-2-Cyclobutyl-1-(4-(1-(2-hydroxyethyl)-1H-pyrazol-4-yl)phenyl)-2-phenylvinyl)phenyl)acrylic acid]: “++ (++ = a single % value ≧ 40%)”, at least 7.00, at least 40% and at most 100 nM.
In the case of `Cc1cscc1/C(=C(\c1ccc(/C=C/C(=O)O)cc1)c1ccc(-c2cnn(CCO)c2)cc1)C1CCC1` [Example 68, (E)-3-(4-((E)-2-Cyclobutyl-1-(4-(1-(2-hydroxyethyl)-1H-pyrazol-4-yl)phenyl)-2-(4-methylthiophen-3-yl)vinyl)phenyl)acrylic acid], in the assay with MCF-7 cells, the “MCF7 Viability Assay Max Response” value is “++ (++ = a single % value ≧ 40%)” and the pIC50 is at least 7.00. In addition, on ER-α, the Emax was at least 40% and the DC50 was at most 100 nM.
The matching figures for `O=C(O)/C=C/c1ccc(/C(=C(\c2ccc(F)cc2Cl)C2CCC2)c2ccc(-c3cnn(CCO)c3)cc2)cc1` [Example 69, (E)-3-(4-((E)-2-(2-Chloro-4-fluorophenyl)-2-cyclobutyl-1-(4-(1-(2-hydroxyethyl)-1H-pyrazol-4-yl)phenyl)vinyl)phenyl)acrylic acid]: “++ (++ = a single % value ≧ 40%)”, at least 7.00, at least 40% and at most 100 nM.
The matching figures for `CN(C)CCn1cc(-c2ccc(/C(=C(/c3ccccc3)C3CCC3)c3ccc(/C=C/C(=O)O)cc3)cc2)cn1` [Example 70, (E)-3-(4-((E)-2-Cyclobutyl-1-(4-(1-(2-(dimethylamino)ethyl)-1H-pyrazol-4-yl)phenyl)-2-phenylvinyl)phenyl)acrylic acid]: “++ (++ = a single % value ≧ 40%)”, at least 7.00, at least 40% and at most 100 nM.
The matching figures for `Fc1ccc(/C(=C(\c2ccc(/C=C/c3nn[nH]n3)cc2)c2ccc(-c3cn[nH]c3)cc2)C2CCC2)c(Cl)c1` [Example 71, 5-((E)-4-((E)-1-(4-(1H-Pyrazol-4-yl)phenyl)-2-(2-chloro-4-fluorophenyl)-2-cyclobutylvinyl)styryl)-2H-tetrazole]: “++ (++ = a single % value ≧ 40%)”, at least 7.00, at least 40% and at most 100 nM.
